Measured values reported in patent publication EP4624471A1, “PKMYT1 INHIBITOR, PREPARATION METHOD THEREFOR, AND PHARMACEUTICAL COMPOSITION AND USE THEREOF” (Shanghai Qilu Pharmaceutical Research and Development …, priority 2022, dated 2024).
Converted amounts (≈) assume the structure as drawn. Each block holds one compound with its values, some of them ahead of it.

Legend:
PKMYT1 enzyme = target: T1, PKMYT1 enzyme (Homo sapiens, UniProt Q99640); assay: PKMYT1 enzyme inhibition activity, ADP-GLO method; format: biochemical; conditions: PKMYT1 enzyme 10 nM, ATP 5 µM, 37°C 90 minutes; read-out: ADP-GLO IC50
T1 construct: purchased Thermo Scientific A33387
T1 sequence (Q99640 1-499): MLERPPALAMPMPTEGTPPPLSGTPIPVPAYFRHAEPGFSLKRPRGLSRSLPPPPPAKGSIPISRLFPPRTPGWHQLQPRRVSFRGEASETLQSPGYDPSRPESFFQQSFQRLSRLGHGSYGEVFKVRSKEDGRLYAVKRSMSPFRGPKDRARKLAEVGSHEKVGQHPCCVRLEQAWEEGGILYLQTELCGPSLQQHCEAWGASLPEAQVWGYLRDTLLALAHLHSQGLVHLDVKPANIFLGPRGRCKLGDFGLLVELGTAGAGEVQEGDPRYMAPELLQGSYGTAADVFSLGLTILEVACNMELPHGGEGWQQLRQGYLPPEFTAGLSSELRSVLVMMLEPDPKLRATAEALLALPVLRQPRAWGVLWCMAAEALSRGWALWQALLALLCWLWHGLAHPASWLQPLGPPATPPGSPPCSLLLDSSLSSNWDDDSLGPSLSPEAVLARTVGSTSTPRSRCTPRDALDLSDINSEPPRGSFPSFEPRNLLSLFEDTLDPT

HCC1569 cells = assay: Cytostatic activity, CTG assay (HCC1569); format: cell-based; conditions: 5 days
Protocol: Biological test example 2. Cytostatic activity of compounds of the present disclosure
CTG assay (HCC1569) was used to verify the biological activity of some of the example compounds of the present disclosure.
HCC1569 cells were purchased from ATCC (Cat. No.: CRL-2330) and cultured in a 37°C, 5% CO2 cell culture incubator. HCC1569 complete medium: RPMI-1640 liquid medium (Cat. No.: Gibico 11875-093), 20% FBS (Cat. No.: Gibico 10099-141), 1% Pen Strep (Cat. No.: Gibico 15070-063).
HCC1569 cells in a 75 cm^2 culture flask were digested with 2 mL of trypsin for 2-3 min, and then neutralized with 2 mL of 1640 complete medium. The mixture was centrifuged at 1200 rpm for 5 minutes. Cells were resuspended using 4 mL of 1640 complete medium. 500 µL of cell suspension was taken for cell counting using Vi-CELL-XR cell counter.
Using a Multidrop instrument, the HCC1569 cells were seeded in a 384-well plate at a density of 1000 cells per well (50 µL 1640 Growth Media) and administrated 24 hours later.
Using an ultra-micro pipette, the test compound (concentration: 3.33 mM, dissolved in DMSO) was diluted with 10 µM as the highest starting concentration, and then sequentially diluted in 10 gradients at a ratio of 1:3 (10000 nM, 3333 nM, 1111 nM, 370 nM, 123 nM, 41 nM, 13.7 nM, 4.6 nM, 1.5 nM, 0.5 nM) for administration treatment, with two duplicate wells for each concentration; 14 wells for positive and negative controls were set, with the positive control being the duplicate wells of 10 µM positive compound and the negative control being the duplicate wells of DMSO.
After the administration was completed, the cells were placed in a 37°C incubator for further culture for 5 days. After 5 days, 25 µL of CTG buffer was added to each well for CTG assay detection, and analyzed using a microplate reader. CTG readings were analyzed.
a = CTG value (highest concentration), b = CTG value (blank well), x = CTG value(test well).
IC50 was calculated using GraphPad PRISM 8.
Log10 (A compound concentration) was used for statistical calculation. (2) The data were input into GraphPad PRISM 8, and Analysis was selected. (3) Nonlinear regression (curve fit) was selected. (4) Log (inhibitor) vs. response-Variable slope was selected. (5) The calculation formula was selected, and the calculation was carried out according to the following formula: Y = Bottom + (Top-Bottom)/(1+10^((LogIC50-X)*HillSlope)), X: logarithm of dose or concentration, Y: response value, Top and Bottom: peak and bottom values. (6) The data were fitted to obtain IC50 values. (7) The fitting conditions were adjusted according to the specific data. Appropriate Constraint conditions were adjusted for Bottom, Top, and HillSlope. The curve that best fits the actual situation has been reached.

[1] = Metabolic stability in mouse liver microsomes
[2] = 24 h, pH 5
physchem = conditions: pH 5, Solubility (µg/mL)
[3] = Tissue distribution: tumor tissue concentration in OVCAR3 tumor-bearing mice; conditions: BALB/c nude mice, 10 mpk p.o. BIDx28D; for Tumor tissue concentration (ng/g) 2 h after administration: 2 h after last administration; for Tumor tissue concentration (ng/g) 6 h after administration: 6 h after last administration
[4] = TS-FeSSIF & TS-FeSSGF solubility test; conditions: pH 5
[5] = Metabolic stability in human hepatocytes; conditions: for hepatocyte CLint at 1 µM: In vitro Clint (µL/min/10^6 cells); for half-life at 1 µM: t1/2 (min)

SMILES: Cc1cc(F)c(O)c(C)c1-n1c(N)c(C(N)=O)c2cc(Br)c(C)nc21 (atropisomer, axis not shown) [Example 58.1]
IC50 (PKMYT1 enzyme): 3.08 nM
IC50 (HCC1569 cells; Homo sapiens, HCC1569, 120 h): 83 nM
half-life at 1 µM ([1]; liver microsomes): 1.16 h
microsomal CLint at 1 µM ([1]; liver microsomes): 19.9 µL/min/mg

Solubility [2]: 33.9 µg/mL (≈ 105 µM)
solubility at 24 h (physchem): 31.6 µg/mL (≈ 97.4 µM)
half-life at 1 µM ([1]; microsomes): 0.377 h
microsomal CLint at 1 µM ([1]; microsomes): 61.3 µL/min/mg
Tumor tissue concentration (ng/g) 2 h after administration [3]: 172 ng/g
Tumor tissue concentration (ng/g) 6 h after administration [3]: 18 ng/g
SMILES: Cc1cc2c(C(N)=O)c(N)n(-c3c(C)ccc(O)c3C)c2nc1C (atropisomer, axis not shown) [RP-6306, reference compound]

SMILES: Cc1cc(F)c(O)c(C)c1-n1c(N)c(C(N)=O)c2cc(C(F)(F)F)c(C)nc21 (atropisomer, axis not shown) [Example 59.1]
IC50 (PKMYT1 enzyme): 4.49 nM
IC50 (HCC1569 cells; Homo sapiens, HCC1569, 120 h): 56 nM
solubility at 24 h ([4]; ts-fessgf): 253 µg/mL (≈ 639 µM)
solubility at 24 h ([4]; ts-fessif): 352 µg/mL (≈ 888 µM)
hepatocyte CLint at 1 µM ([5]; Female): 10 µL/min/1e6 cells
hepatocyte CLint at 1 µM ([5]; Male): 7 µL/min/1e6 cells
half-life at 1 µM ([5]; Female): 2.3 h
half-life at 1 µM ([5]; Male): 3.3 h
half-life at 1 µM ([1]; liver microsomes): 3.08 h
microsomal CLint at 1 µM ([1]; liver microsomes): < 7.5 µL/min/mg
Tumor tissue concentration (ng/g) 2 h after administration [3]: 633 ng/g
Tumor tissue concentration (ng/g) 6 h after administration [3]: 231 ng/g

SMILES: Cc1cc(F)c(O)c(C)c1-n1c(N)c(C(N)=O)c2cc(C3CC3)c(C)nc21 (single isomer, unassigned) [Example 141.1]
IC50 (PKMYT1 enzyme): 2.56 nM
IC50 (HCC1569 cells; Homo sapiens, HCC1569, 120 h): 61 nM

SMILES: CCc1cc2c(C(N)=O)c(N)n(-c3c(C)c(O)cc(F)c3C)c2nc1C (atropisomer, axis not shown) [Example 132.1]
IC50 (PKMYT1 enzyme): 6.23 nM
IC50 (HCC1569 cells): 11 nM

SMILES: Cc1nc2c(cc1-c1ncco1)c(C(N)=O)c(N)n2-c1c(C)c(O)cc(F)c1C [Example 121]
IC50 (PKMYT1 enzyme): 5.11 nM
IC50 (HCC1569 cells; Homo sapiens, HCC1569, 120 h): 21 nM

SMILES: Cc1nc2c(cc1F)c(C(N)=O)c(N)n2-c1c(C)c(O)cc(F)c1C [Example 105]
IC50 (PKMYT1 enzyme): 2.43 nM
IC50 (HCC1569 cells; Homo sapiens, HCC1569, 120 h): 54 nM

SMILES: C=C(C)c1cnc2c(c1)c(C(N)=O)c(N)n2-c1c(C)c(O)cc(F)c1C (atropisomer, axis not shown) [Example 133.1]
IC50 (PKMYT1 enzyme): 2.43 nM
IC50 (HCC1569 cells): 12 nM
